Measured values from patent US20210330741A1, “POLYPEPTIDE THERAPEUTICS AND USES THEREOF” (BOARD OF REGENTS, THE UNIVERSITY OF TEXAS SYSTEM, priority 2015, published 2021).
Where no end group is shown, it is not given here.

Format: physicochemical
Description: Formulation preparation—Lyophilized cake of the CSP 7 mer was prepared using lyophilization. Five hundred μg/mL of the CSP 7 mer solution was prepared as follows: the peptide powder was dissolved in DPBS with minimal volume of ammonium hydroxide (pH 7-8) and 1.5% w/v of mannitol was added in to the solution. The solution was sterile filtered using 0.2 μm SFCA sterile syringe filter (Corning Inc., Corning, N.Y.). Effect of filtration was also tested. One milliliter of the filtrate was filled into a borosilicate glass vial and lyophilized using a VirTis Advantage Lyophilizer (VirTis Company Inc., Gardiner, N.Y.). Lyophilization cycle parameters were set as outlined in Table 2. Primary drying time was varied by number of samples. Nebulization study of the CSP 7 mer peptide—Lyophilized peptide was reconstituted with sterile water for injection (500 μg/mL). […] The condensate of each sample was collected in a polypropylene tube and kept at 5° C. until analyzed. The amount of peptide in each sample was analyzed using high performance liquid chromatography (HPLC) and the degradation products was detected using liquid chromatography mass spectroscopy (LC/MS). Chromatographic conditions—Samples were analyzed using a Dionex 3000 high performance liquid chromatography (HPLC) system (Thermo Fisher Scientific, Fair Lawn, N.J.) with a wavelength of 220 nm. […]

percent recovery of the peptide (chemical assay, % of peptide remaining): did not have an influence
Substance: FTTFTVT [CSP-7, FTTFTVT]
